Reference: patent publication US12410209B2, “Modified glucocorticoids” (Board of Regents, The University of Texas System, priority 2021, dated 2025)

What was measured:
Assay type in all cases: cell-based, human
Met4 cells = test: MTT assay for cell viability; conditions: cancerous Met4 cells, range of concentrations, FIG. 2
IL-1β mRNA = test: qPCR analysis of LPS-induced IL-1β mRNA; conditions: HaCat cells, LPS-induced inflammation, FIG. 5
Text: qPCR analysis is shown FIG. 5.

PM1 cells = test: MTT assay for cell viability; conditions: cancerous PM-1 cells, range of concentrations, FIG. 2
HaCaT cells = test: MTT assay for cell viability; conditions: for sensitivity of cells to glucocorticoid treatment (cell proliferation): normal HaCaT cells compared to cancerous PM1 and Met4 cells

| SMILES | potency against cell proliferation compared with cortisol (Met4 cells) | LPS-induced increase of inflammatory cytokine IL-1β (IL-1β mRNA) | potency against cell proliferation compared with cortisol (PM1 cells) | sensitivity of cells to glucocorticoid treatment (cell proliferation) (HaCaT cells) | potency against cell proliferation compared with cortisol (HaCaT cells; normal HaCaT cells, range of concentrations, FIG. 2) |
| --- | --- | --- | --- | --- | --- |
| C[C@]12CCC(=O)C=C1CC[C@@H]1[C@@H]2[C@@H](F)C[C@@]2(C)[C@H]1CC[C@]2(O)C(=O)CO [F-MOD, 11-deoxyfluorocortisol] | at least as powerful as the original cortisol | significantly suppressed | at least as powerful as the original cortisol if not stronger | more sensitive | at least as powerful as the original cortisol |
| C[C@]12CCC(=O)C=C1CC[C@@H]1[C@@H]2[C@@H](O)C[C@@]2(C)[C@H]1CC[C@]2(O)C(=O)CO [cortisol, reference compound] |  | significantly suppressed |  | more sensitive |  |
